Source: patent publication US20250353853A1, “FLAVIVIRUS INHIBITORS” (IRBM S.P.A., priority 2022, published 2025)
Read-outs that look alike come from different tables or passages of the source.

Experiments:
[1] = system: ZIKV replicon in Vero cells; assay: ZIKV Replication Inhibition Assay (replicon, NanoLuc); settings: Zika virus, Vero, 72 h, read-out: Zika Replicon EC50
[2] = target: West Nile Virus (WNV) NS2B-NS3 protease (West Nile virus (WNV), UniProt P06935); assay: WNV Protease Inhibition Assay; type: biochemical
West Nile Virus (WNV) NS2B-NS3 protease, sequence (P06935 1502-1679 limits assumed): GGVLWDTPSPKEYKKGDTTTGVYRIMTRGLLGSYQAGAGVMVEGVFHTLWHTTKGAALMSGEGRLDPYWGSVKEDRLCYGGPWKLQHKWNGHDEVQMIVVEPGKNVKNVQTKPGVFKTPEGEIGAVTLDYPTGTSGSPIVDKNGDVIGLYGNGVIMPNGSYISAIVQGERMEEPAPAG
West Nile Virus (WNV) NS2B-NS3 protease, sequence (P06935 1371-1501 partner limits assumed): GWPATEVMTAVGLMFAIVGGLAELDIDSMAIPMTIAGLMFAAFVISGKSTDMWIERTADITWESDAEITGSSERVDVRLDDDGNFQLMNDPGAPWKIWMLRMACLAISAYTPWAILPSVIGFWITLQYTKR
Description: WNV Protease Inhibition Assay

[3] = 2 nM protease, 10 μM pERTKR-AMC substrate, read-out: WNV Protease IC50

Row | SMILES | EC50 [1] [nM] | IC50 [2] [nM] | IC50 [2, 3] [nM]
1 | O=C([N-]c1c[n+](Cc2ccc(I)cc2)no1)Nc1cncc(C(F)(F)F)c1 [Example 55, (3-(4-iodobenzyl)-1,2,3-oxadiazol-3-ium-5-yl)((5-(trifluoromethyl)pyridin-3-yl)carbamoyl)amide] | 100 to 1000 | 100 to 1000 | –
2 | Cc1ncncc1-c1ccc(C[n+]2cc([N-]C(=O)Nc3cccc(C(F)(F)F)c3)on2)cc1 [Example 60, (3-(4-(4-methylpyrimidin-5-yl)benzyl)-1,2,3-oxadiazol-3-ium-5-yl)((3-(trifluoromethyl)phenyl)carbamoyl)amide] | < 100 | – | < 100
3 | Cc1noc(C)c1-c1ccc(C[n+]2cc([N-]C(=O)Nc3cccc(C(F)(F)F)n3)on2)nc1 [Example 161, (3-((5-(3,5-dimethylisoxazol-4-yl)pyridin-2-yl)methyl)-1,2,3-oxadiazol-3-ium-5-yl)((6-(trifluoromethyl)pyridin-2-yl)carbamoyl)amide] | 1000 to 20000 | 1000 to 20000 | –
4 | COc1ncc(-c2ccc(C[n+]3cc([N-]C(=O)Nc4cccc(C(F)(F)F)c4)on3)cc2)cn1 [Example 41, (3-(4-(2-methoxypyrimidin-5-yl)benzyl)-1,2,3-oxadiazol-3-ium-5-yl)((3-(trifluoromethyl)phenyl)carbamoyl)amide] | 100 to 1000 | – | < 100
5 | Cc1noc(C)c1-c1ccc(C[n+]2cc([N-]C(=O)Nc3cccc(C(F)F)c3)on2)nc1 [Example 168, ((3-(difluoromethyl)phenyl)carbamoyl)(3-((5-(3,5-dimethylisoxazol-4-yl)pyridin-2-yl)methyl)-1,2,3-oxadiazol-3-ium-5-yl)amide] | 100 to 1000 | 100 to 1000 | –
6 | COc1cc(-c2ccc(C[n+]3cc([N-]C(=O)Nc4cccc(C(F)(F)F)c4)on3)nc2)c(OC)nn1 [Example 181, (3-((5-(3,6-dimethoxypyridazin-4-yl)pyridin-2-yl)methyl)-1,2,3-oxadiazol-3-ium-5-yl)((3-(trifluoromethyl)phenyl)carbamoyl)amide] | < 100 | 100 to 1000 | –
7 | Cc1ncnc(C)c1-c1ccc(C[n+]2cc([N-]C(=O)Nc3cccc(C(F)(F)F)c3)on2)nn1 [Example 184, (3-((6-(4,6-dimethylpyrimidin-5-yl)pyridazin-3-yl)methyl)-1,2,3-oxadiazol-3-ium-5-yl)((3-(trifluoromethyl)phenyl)carbamoyl)amide] | 100 to 1000 | 100 to 1000 | –
8 | Cc1ncccc1-c1ccc(C[n+]2cc([N-]C(=O)Nc3cccc(C(F)(F)F)c3)on2)nc1 [Example 138, (3-((2′-methyl-[3,3′-bipyridin]-6-yl)methyl)-1,2,3-oxadiazol-3-ium-5-yl)((3-(trifluoromethyl)phenyl)carbamoyl)amide] | < 100 | – | < 100
9 | COc1ncnc(C)c1-c1ccc(C[n+]2cc([N-]C(=O)Nc3cccc(C(F)(F)F)c3)on2)nc1 [Example 135, (3-((5-(4-methoxy-6-methylpyrimidin-5-yl)pyridin-2-yl)methyl)-1,2,3-oxadiazol-3-ium-5-yl)((3-(trifluoromethyl)phenyl)carbamoyl)amide] | < 100 | – | < 100
10 | Cc1noc(C)c1-c1ccc(C[n+]2cc([N-]C(=O)Nc3ccc(F)c(C(F)(F)F)c3)on2)nc1 [Example 150, (3-((5-(3,5-dimethylisoxazol-4-yl)pyridin-2-yl)methyl)-1,2,3-oxadiazol-3-ium-5-yl)((4-fluoro-3-(trifluoromethyl)phenyl)carbamoyl)amide] | < 100 | 100 to 1000 | –
11 | Cc1noc(C)c1-c1ccc(C[n+]2cc([N-]C(=O)Nc3cnc(C(F)(F)F)s3)on2)nc1 [Example 154, (3-((5-(3,5-dimethylisoxazol-4-yl)pyridin-2-yl)methyl)-1,2,3-oxadiazol-3-ium-5-yl)((2-(trifluoromethyl)thiazol-5-yl)carbamoyl)amide] | 100 to 1000 | 100 to 1000 | –
12 | Cc1ncnc(C)c1-c1ccc([C@@H](C)[n+]2cc(NC(=O)Nc3ccnc(C(F)(F)F)c3)on2)cc1 [Example 188, (R)-(3-(1-(4-(4,6-dimethylpyrimidin-5-yl)phenyl)ethyl)-1,2,3-oxadiazol-3-ium-5-yl)((2-(trifluoromethyl)pyridin-4-yl)carbamoyl)amide] | < 100 | < 100 | –
13 | O=C([N-]c1c[n+](Cc2ccc(-c3cccnc3)cc2)no1)Nc1cccc(C(F)(F)F)c1 [Example 22, (3-(4-(pyridin-3-yl)benzyl)-1,2,3-oxadiazol-3-ium-5-yl)((3-(trifluoromethyl)phenyl)carbamoyl)amide] | 100 to 1000 | 100 to 1000 | –
14 | O=C([N-]c1c[n+](Cc2ccc(-c3cnoc3)cc2)no1)Nc1cccc(C(F)(F)F)c1 [Example 48, (3-(4-(isoxazol-4-yl)benzyl)-1,2,3-oxadiazol-3-ium-5-yl)((3-(trifluoromethyl)phenyl)carbamoyl)amide] | 100 to 1000 | 100 to 1000 | –
15 | Cc1cnn(C)c1-c1ccc(C[n+]2cc([N-]C(=O)Nc3ccnc(C(F)(F)F)c3)on2)nc1 [Example 175, (3-((5-(1,4-dimethyl-1H-pyrazol-5-yl)pyridin-2-yl)methyl)-1,2,3-oxadiazol-3-ium-5-yl)((2-(trifluoromethyl)pyridin-4-yl)carbamoyl)amide] | < 100 | – | < 100
16 | O=C([N-]c1c[n+](Cc2ccc(-c3c(F)cncc3F)cn2)no1)Nc1cccc(C(F)(F)F)c1 [Example 170, (3-((3′,5′-difluoro-[3,4′-bipyridin]-6-yl)methyl)-1,2,3-oxadiazol-3-ium-5-yl)((3-(trifluoromethyl)phenyl)carbamoyl)amide] | < 100 | 100 to 1000 | –
17 | O=C([N-]c1c[n+](Cc2ccc(-c3cncnc3)cn2)no1)Nc1cncc(C(F)(F)F)c1 [Example 125, (3-((5-(pyrimidin-5-yl)pyridin-2-yl)methyl)-1,2,3-oxadiazol-3-ium-5-yl)((5-(trifluoromethyl)pyridin-3-yl)carbamoyl)amide] | 100 to 1000 | 100 to 1000 | –
18 | O=C([N-]c1c[n+](Cc2ccc(-c3cncnc3)cc2)no1)Nc1cccc(C(F)(F)F)c1 [Example 26, (3-(4-(Pyrimidin-5-yl)benzyl)-1,2,3-oxadiazol-3-ium-5-yl)((3-(trifluoromethyl)phenyl)carbamoyl)amide] | 100 to 1000 | 100 to 1000 | –
19 | O=C([N-]c1c[n+](Cc2ccc(-c3cncnc3C3CC3)cn2)no1)Nc1cccc(C(F)(F)F)c1 [Example 155, (3-((5-(4-cyclopropylpyrimidin-5-yl)pyridin-2-yl)methyl)-1,2,3-oxadiazol-3-ium-5-yl)((3-(trifluoromethyl)phenyl)carbamoyl)amide] | 100 to 1000 | 100 to 1000 | –
20 | Cc1n[nH]c(C)c1-c1ccc(C[n+]2cc([N-]C(=O)Nc3cccc(C(F)(F)F)c3)on2)nc1 [Example 151, (3-((5-(3,5-dimethyl-1H-pyrazol-4-yl)pyridin-2-yl)methyl)-1,2,3-oxadiazol-3-ium-5-yl)((3-(trifluoromethyl)phenyl)carbamoyl)amide] | 100 to 1000 | 100 to 1000 | –
21 | Cc1ccnnc1-c1ccc(C[n+]2cc([N-]C(=O)Nc3cccc(C(F)(F)F)c3)on2)nc1 [Example 162, (3-((5-(4-methylpyridazin-3-yl)pyridin-2-yl)methyl)-1,2,3-oxadiazol-3-ium-5-yl)((3-(trifluoromethyl)phenyl)carbamoyl)amide] | < 100 | – | < 100
